Converted amounts (≈) assume the structure as drawn.
The compounds below were run on Enterococcus faecalis ATCC 51299 (vanA-positive; vancomycin-resistant) (assay: In vitro antibacterial activity, MIC (UCL), VRE). Conditions: not given.
Assay type: cell-based
Experimental: (§1) Staphylococcus aureus NCTC 13373 (mecA-positive; methicillin-resistant, NCTC 13373) was supplied by the National Collection of Type Cultures (NCTC), Public Health England, United Kingdom. Other organisms, S. aureus ATCC 25923 (methicillin-susceptible) and Enterococcus faecalis ATCC 51299 (vanA-positive; vancomycin-resistant), were obtained from the American Type Culture Collection (ATCC) via LGC Standards, UK. A suspension of each organism was prepared from an overnight plate culture (tryptone soya agar) in phosphate-buffered saline (PBS) and adjusted to an absorbance reading at 600 nm of 0.1, which is approximately equivalent to 1 × 10^8 colony-forming units (CFU) per mL. The cultures were further diluted 1:100 in isosensitest broth (Oxoid, United Kingdom) before 100 μL was used to inoculate each well of a 96-well plate that contained diluted samples of the OSA series. Compounds were evaluated over a 2-fold dilution range from 32 to 0.03 μg/mL. Stocks of the samples were prepared in 100% DMSO at […] before being diluted in isosenstitest broth. The highest concentration of DMSO present was 2%, which has been previously shown not to inhibit the growth of the microorganisms (data not shown). […] Vancomycin was used as a quality control compound.

VRE MIC	Structure (SMILES)
> 32 µg/mL	COc1ccn2c(Nc3ccnc(C)c3)c(-c3ccccn3)nc2c1 [compound 854]
> 32 µg/mL	c1ccc(-c2nc3ncccn3c2-c2ccc3occc3c2)nc1 [compound 863]
> 32 µg/mL	COc1ccn2c(Nc3ccc4c(c3)OCCO4)c(-c3c[nH]cn3)nc2c1 [compound 866]
> 32 µg/mL	COc1ccc2nc(-c3c[nH]cn3)c(Nc3ccc4c(c3)OCCO4)n2c1 [compound 867]

Same assay, conditions: read-out: VRE MIC

Structure (SMILES)	MIC
c1ncc(-c2nc3n(c2-c2ccc4occc4c2)CCC3)cn1 [compound 874]	> 32 µg/mL
Clc1ccc(-c2c(-c3ccccn3)nc3n2CCC3)cc1Cl [compound 876]	8 µg/mL (≈ 24.2 µM)
CC(=O)c1ccc(-c2c(-c3ccccn3)nc3n2CCC3)cc1 [compound 973]	> 32 µg/mL
Cc1ccccc1-c1c(-c2ccccn2)nc2n1CCC2 [compound 977]	32 µg/mL (≈ 116 µM)

More lines, now with the values ahead:

MIC	Structure (SMILES)
> 32 µg/mL	Cn1ccnc1-c1nc2ccccn2c1Nc1ccc(F)cc1 [compound 847]
> 32 µg/mL	N#Cc1cccc(-c2c(-c3ccccn3)nc3n2CCC3)c1 [compound 864]
32 µg/mL (≈ 92.7 µM)	FC(F)(F)Oc1ccc(-c2c(-c3ccccn3)nc3n2CCC3)cc1 [compound 868]
32 µg/mL (≈ 116 µM)	Cc1cccc(-c2c(-c3ccccn3)nc3n2CCC3)c1 [compound 976]

Same assay, conditions: read-out: VRE MIC (UCL)

Structure (SMILES)	MIC
Cc1ccn2c(NC3CCCC3)c(-c3ccc(N(C)C)cc3)nc2c1 [OSA_000840]	> 32 µg/mL
Cc1ccc2nc(-c3ccccn3)c(Nc3ccc4c(c3)OCCO4)n2c1 [OSA_000841]	16 µg/mL (≈ 44.6 µM)
COc1ccn2c(Nc3cccc(F)c3)c(-c3cscn3)nc2c1 [OSA_000843]	> 32 µg/mL
CN(C)Cc1ccc2nc(-c3ccccn3)c(Nc3cccc(F)c3)n2c1 [OSA_000844]	> 32 µg/mL
c1ccn2c(NC3CCCC3)c(-c3nccs3)nc2c1 [OSA_000845]	> 32 µg/mL
Cn1ccnc1-c1nc2ccccn2c1Nc1ccc(F)cc1 [OSA_000847]	> 32 µg/mL
COc1ccn2c(Nc3cccc(F)c3)c(-c3cn(C)cn3)nc2c1 [OSA_000848]	> 32 µg/mL
COc1ccc(-c2nc3ccc(C)cn3c2NCc2ccco2)cc1OC [OSA_000849]	> 32 µg/mL
c1ccc(-c2nc3ccccn3c2N2CCOCC2)nc1 [OSA_000850]	> 32 µg/mL
COCc1ccc2nc(-c3ccccn3)c(Nc3cccc(F)c3)n2c1 [OSA_000852]	> 32 µg/mL
COc1ccn2c(NCc3cn(C)cn3)c(-c3ccccn3)nc2c1 [OSA_000853]	> 32 µg/mL
COc1ccn2c(Nc3ccc4c(c3)OCCO4)c(-c3c[nH]cn3)nc2c1 [OSA_000866]	> 32 µg/mL
COc1ccc2nc(-c3c[nH]cn3)c(Nc3ccc4c(c3)OCCO4)n2c1 [OSA_000867]	> 32 µg/mL
CC(=O)c1ccc(-c2c(-c3ccccn3)nc3n2CCC3)cc1 [OSA_000973]	> 32 µg/mL
Cc1ccccc1-c1c(-c2ccccn2)nc2n1CCC2 [OSA_000977]	32 µg/mL (≈ 116 µM)

Other lines, results leading:

MIC	Structure (SMILES)
> 32 µg/mL	COc1ccn2c(Nc3ccc(F)cn3)c(-c3ccccn3)nc2c1 [OSA_000839]
> 32 µg/mL	Cc1ccn2c(Nc3ccc(F)cc3)c(-c3ccc(N(C)C)cc3)nc2c1 [OSA_000846]
> 32 µg/mL	COc1ccn2c(Nc3ccnc(C)c3)c(-c3ccccn3)nc2c1 [OSA_000854]
> 32 µg/mL	c1ccc(-c2nc3ncccn3c2-c2ccc3occc3c2)nc1 [OSA_000863]
> 32 µg/mL	c1ncc(-c2nc3n(c2-c2ccc4occc4c2)CCC3)cn1 [OSA_000874]

Each compound was assayed on Staphylococcus aureus NCTC 13373 (mecA-positive; methicillin-resistant) (assay: In vitro antibacterial activity, MIC (UCL School of Pharmacy assay), MRSA). Conditions: not given.
Assay type: cell-based
Experimental: as §1

MRSA MIC	Structure (SMILES)	activity against MRSA, in words
> 32 µg/mL	COc1ccn2c(Nc3ccnc(C)c3)c(-c3ccccn3)nc2c1 [compound 854]	
> 32 µg/mL	c1ccc(-c2nc3ncccn3c2-c2ccc3occc3c2)nc1 [compound 863]	
> 32 µg/mL	COc1ccn2c(Nc3ccc4c(c3)OCCO4)c(-c3c[nH]cn3)nc2c1 [compound 866]	
> 32 µg/mL	COc1ccc2nc(-c3c[nH]cn3)c(Nc3ccc4c(c3)OCCO4)n2c1 [compound 867]	
	c1ncc(-c2nc3n(c2-c2ccc4occc4c2)CCC3)cn1 [compound 874]	inactive
	CC(=O)c1ccc(-c2c(-c3ccccn3)nc3n2CCC3)cc1 [compound 973]	not tolerated

Same assay, conditions: Staphylococcus aureus, UCL; read-out: MRSA MIC (UCL)

Structure (SMILES)	MIC
Cc1ccn2c(NC3CCCC3)c(-c3ccc(N(C)C)cc3)nc2c1 [OSA_000840]	> 32 µg/mL
Cc1ccc2nc(-c3ccccn3)c(Nc3ccc4c(c3)OCCO4)n2c1 [OSA_000841]	8 µg/mL (≈ 22.3 µM)
COc1ccn2c(Nc3cccc(F)c3)c(-c3cscn3)nc2c1 [OSA_000843]	> 32 µg/mL
CN(C)Cc1ccc2nc(-c3ccccn3)c(Nc3cccc(F)c3)n2c1 [OSA_000844]	> 32 µg/mL
c1ccn2c(NC3CCCC3)c(-c3nccs3)nc2c1 [OSA_000845]	> 32 µg/mL
Cn1ccnc1-c1nc2ccccn2c1Nc1ccc(F)cc1 [OSA_000847]	> 32 µg/mL
COc1ccn2c(Nc3cccc(F)c3)c(-c3cn(C)cn3)nc2c1 [OSA_000848]	> 32 µg/mL
COc1ccc(-c2nc3ccc(C)cn3c2NCc2ccco2)cc1OC [OSA_000849]	> 32 µg/mL
c1ccc(-c2nc3ccccn3c2N2CCOCC2)nc1 [OSA_000850]	> 32 µg/mL
COCc1ccc2nc(-c3ccccn3)c(Nc3cccc(F)c3)n2c1 [OSA_000852]	> 32 µg/mL
COc1ccn2c(NCc3cn(C)cn3)c(-c3ccccn3)nc2c1 [OSA_000853]	> 32 µg/mL
COc1ccn2c(Nc3ccc4c(c3)OCCO4)c(-c3c[nH]cn3)nc2c1 [OSA_000866]	> 32 µg/mL
COc1ccc2nc(-c3c[nH]cn3)c(Nc3ccc4c(c3)OCCO4)n2c1 [OSA_000867]	> 32 µg/mL
CC(=O)c1ccc(-c2c(-c3ccccn3)nc3n2CCC3)cc1 [OSA_000973]	> 32 µg/mL
Cc1ccccc1-c1c(-c2ccccn2)nc2n1CCC2 [OSA_000977]	32 µg/mL (≈ 116 µM)

The remaining lines, values ahead:

MIC	Structure (SMILES)
16 µg/mL (≈ 47.7 µM)	COc1ccn2c(Nc3ccc(F)cn3)c(-c3ccccn3)nc2c1 [OSA_000839]
> 32 µg/mL	Cc1ccn2c(Nc3ccc(F)cc3)c(-c3ccc(N(C)C)cc3)nc2c1 [OSA_000846]
> 32 µg/mL	COc1ccn2c(Nc3ccnc(C)c3)c(-c3ccccn3)nc2c1 [OSA_000854]
> 32 µg/mL	c1ccc(-c2nc3ncccn3c2-c2ccc3occc3c2)nc1 [OSA_000863]
> 32 µg/mL	c1ncc(-c2nc3n(c2-c2ccc4occc4c2)CCC3)cn1 [OSA_000874]

Same assay, conditions: Staphylococcus aureus; read-out: MRSA MIC

Structure (SMILES)	MIC
c1ncc(-c2nc3n(c2-c2ccc4occc4c2)CCC3)cn1 [compound 874]	> 32 µg/mL
Clc1ccc(-c2c(-c3ccccn3)nc3n2CCC3)cc1Cl [compound 876]	8 µg/mL (≈ 24.2 µM)
CC(=O)c1ccc(-c2c(-c3ccccn3)nc3n2CCC3)cc1 [compound 973]	> 32 µg/mL
Cc1ccccc1-c1c(-c2ccccn2)nc2n1CCC2 [compound 977]	32 µg/mL (≈ 116 µM)

The next lines start with the values.

MIC	Structure (SMILES)
> 32 µg/mL	Cn1ccnc1-c1nc2ccccn2c1Nc1ccc(F)cc1 [compound 847]
> 32 µg/mL	N#Cc1cccc(-c2c(-c3ccccn3)nc3n2CCC3)c1 [compound 864]
8 µg/mL (≈ 23.2 µM)	FC(F)(F)Oc1ccc(-c2c(-c3ccccn3)nc3n2CCC3)cc1 [compound 868]
8 µg/mL (≈ 29.1 µM)	Cc1cccc(-c2c(-c3ccccn3)nc3n2CCC3)c1 [compound 976]
